The subject of assay [1] is human large intestine cancer cell (HCT 116) tumor. Kind of assay: Tumor growth inhibition test in HCT 116-subcutaneously transplanted nude mouse. It is filed as in vivo. To be noted: dose of 100 mg/kg, repeated oral administration, HCT-116 in female BALB nude mice, control group = 100%, read-out: rate of suppression of tumor volume. Here is the method: A human large intestine cancer cell line (HCT-116) was cultured in a McCoy's 5A medium containing 10% FBS and 1% penicillin/streptomycin/amphotericin B and adjusted to 1.0×10^8 cells/mL with PBS or Hanks solution (HBSS(−)). The prepared cell suspension was subcutaneously injected at 0.1 mL/mouse to the right abdomens of female BALB nude mice (supplied by Charles River Laboratories Japan, Inc.). After rearing for a certain period, the long diameter (mm) and short diameter (mm) of tumor were measured with electronic calipers, and the tumor volume was calculated according to the following expression: Tumor volume (mm^3)=(Long diameter)×(Short diameter)×(Short diameter)×0.5
Individuals whose tumor volume was within the range of 50 to 200 mm^3 were selected and grouped such that the tumor volume was almost equivalent, then a test compound or only a solvent was orally administered in a repeated manner, and the body weights and tumor volume were measured. A test compound was suspended in a 0.5 w/v % aqueous methylcellulose solution (0.5% MC) (manufactured by Wako Pure Chemical Industries, Ltd.) and orally administered at 10 mL/kg in a repeated manner. When the tumor volume of the control group was defined as 100%, the rate of suppression of tumor volume (%) at each dose of the test compound was calculated.

Another assay deals with IL-17 production. The assay is described as follows: Human PBMC various-stimulant cocktail-induced IL-17 production inhibition test. The assay is classed as cell-based. The following applies: 120 h, human T-cell suspension from PBMC, culture for 5 days, ELISA. The source says: PBMC was separated and collected by using Ficoll-Paque (manufactured by GE Healthcare Japan Corp.) from blood collected from a healthy human adult in the presence of heparin. The collected PBMC was further cultured in a flask for a certain time, and then, non-adherent cells in the supernatant were collected and used as a T-cell suspension.
A RPMI1640 medium containing 10% FBS, 1% penicillin/streptomycin/amphotericin B, essential amino acids, and pyruvic acid and containing a test compound dissolved in DMSO, a human CD28 antibody, a human IFN-γ antibody, a human IL-4 antibody, human IL-6, human IL-23, human IL-1β, and human TGF-β was added at 100 μL/well to T cell Activation Plate Anti-Human CD3 96-well plate. Subsequently, 100 μL of a T-cell suspension adjusted to 2×10^5 cells/mL was added to each well (final DMSO concentration: 0.1%). Only DMSO was added to wells not supplemented with the test compound. After culture for 5 days in a carbon dioxide incubator, the culture supernatant was collected and stored at −20° C. until IL-17 content measurement.
In the measurement of an IL-17 content in the culture supernatant, a sandwich ELISA kit (Quantikine Human IL-17, manufactured by R&D Systems, Inc.) was used. The IL-17 content of each sample was calculated from the calibration curve of Standard IL-17 included in the kit. […] The concentration of the test compound necessary for inhibiting 50% of IL-17 production (IC50 value) was calculated from the concentration of the added test compound and the rate of inhibition of IL-17 production by the test compound by using EXSUS (version 8.1.0, manufactured by CAC Exicare Corp.).

The target of another assay is T1, CDK7 (Homo sapiens, UniProt P50613).
T1 construct: purchased Carna Biosciences, Inc. 04-108
T1 sequence (P50613 whole entry): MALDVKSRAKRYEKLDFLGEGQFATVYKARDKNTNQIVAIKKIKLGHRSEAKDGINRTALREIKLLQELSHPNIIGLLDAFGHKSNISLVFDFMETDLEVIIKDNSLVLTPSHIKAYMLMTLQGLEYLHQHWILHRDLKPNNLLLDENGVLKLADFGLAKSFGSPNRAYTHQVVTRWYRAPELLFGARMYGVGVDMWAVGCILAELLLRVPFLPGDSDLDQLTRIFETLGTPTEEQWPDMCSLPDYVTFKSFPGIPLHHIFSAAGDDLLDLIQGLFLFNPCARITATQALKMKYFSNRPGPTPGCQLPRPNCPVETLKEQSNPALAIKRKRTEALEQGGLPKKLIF
T1 sequence (P51946 whole entry partner): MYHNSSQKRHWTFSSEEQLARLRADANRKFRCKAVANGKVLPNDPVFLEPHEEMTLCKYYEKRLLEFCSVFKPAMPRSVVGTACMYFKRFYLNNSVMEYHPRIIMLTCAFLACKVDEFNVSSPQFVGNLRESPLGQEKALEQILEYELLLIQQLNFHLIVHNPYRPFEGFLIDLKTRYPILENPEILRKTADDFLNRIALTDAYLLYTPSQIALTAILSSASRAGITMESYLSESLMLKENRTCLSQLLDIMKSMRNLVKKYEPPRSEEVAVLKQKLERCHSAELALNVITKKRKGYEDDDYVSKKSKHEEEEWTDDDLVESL
T1 sequence (P51948 whole entry partner): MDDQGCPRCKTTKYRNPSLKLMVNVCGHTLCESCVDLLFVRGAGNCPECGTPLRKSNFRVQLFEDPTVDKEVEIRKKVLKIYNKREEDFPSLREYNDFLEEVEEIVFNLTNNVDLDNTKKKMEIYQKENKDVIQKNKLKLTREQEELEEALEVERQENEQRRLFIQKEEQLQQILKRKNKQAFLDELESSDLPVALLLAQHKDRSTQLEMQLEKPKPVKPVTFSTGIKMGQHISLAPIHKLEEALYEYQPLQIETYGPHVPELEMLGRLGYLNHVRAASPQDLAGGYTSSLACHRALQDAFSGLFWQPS
The assay is described as follows: CDK7 enzyme inhibition test. It is filed as biochemical. The following applies: [γ-33P]ATP, MBP substrate, 60 min preincubation at 25°C; Ki=IC50/(1+S/Km); read-out: Ki value of CDK7 inhibitory activity. A digest of the protocol:
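Commercial human CDK7 with myelin basic protein substrate in HEPES pH 7.4 buffer with DTT, Triton X-100, MgCl2; compound preincubated 60 min at 25° C, then reaction run 20 min at 30° C after adding [γ-^33P]ATP (500 μM solution). TCA-precipitated ^33P-MBP counted by scintillation; IC50 converted to Ki via Ki=IC50/(1+S/Km).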

pIC50, pKi: −log10 of the molar value.

The values that follow come from US10894798B2, “Substituted dihydropyrrolopyrazole derivative” (UBE INDUSTRIES, LTD., priority 2015, dated 2021).

Broadly, the pIC50 is the negative decadic logarithm of the IC50, by convention in mol/L. A low value points to a large IC50. In general, pKi refers to −log10 of the Ki, conventionally taken in molar units. `CCc1cccc(C)c1NC(=O)N1Cc2c(NC(=O)C3([Si](C)(C)C)CCC3)n[nH]c2C1(C)C` [IV-389, N-(2-Ethyl-6-methylphenyl)-6,6-dimethyl-3-[1-(trimethylsilyl)cyclobutanecarboxamido]-4,6-dihydropyrrolo[3,4-c]pyrazole-5 (1H)-carboxamide]: the inhibition in vivo at 100 mg/kg in assay [1] is at least 50%. For the same molecule, the pIC50 in the assay with IL-17 production is at least 7.00. In addition, the negative-log Ki (pKi) on CDK7 is at least 7.30.
For `Cc1ccc(C)c(NC(=O)N2Cc3c(NC(=O)C4([Si](C)(C)C)CCC4)n[nH]c3C2(C)C)c1F` [IV-669, N-(2-Fluoro-3,6-dimethylphenyl)-6,6-dimethyl-3-[1-(trimethylsilyl)cyclobutanecarboxamido]-4,6-dihydropyrrolo[3,4-c]pyrazole-5(1H)-carboxamide], in that order: at least 50%, at least 7.00 and at least 7.30.
For `CC1(C)c2[nH]nc(NC(=O)C3([Si](C)(C)C)CCC3)c2CN1C(=O)Nc1c(F)ccc2ccoc12` [IV-1049, N-(6-Fluorobenzofuran-7-yl)-6,6-dimethyl-3-[1-(trimethylsilyl)cyclobutanecarboxamido]-4,6-dihydropyrrolo[3,4-c]pyrazole-5 (1H)-carboxamide], in that order: at least 50%, at least 7.00 and at least 7.30.
